{"source": "patent US10350204B2", "about": "“Methods for treating cognitive deficits associated with fragile X syndrome” (Wisconsin Alumni Research Foundation, priority 2015, dated 2019)", "key": {"[1]": {"tested_on": "Fmr1 KO and wildtype NPCs", "assay": "Western blot analyses of p-AKT, p-MDM2, MDM2 and P53 in NPCs", "assay_type": "cell-based, mouse", "protocol": "NPCs were isolated from the dentate gyms of 8 to 10-week-old male Fmr1 KO mice and wild-type (wildtype) littermate controls based on our published methods (12, 64). Independently isolated cells serve as biological replicates. Proliferation and differentiation of NPCs was analyzed as described (11, 12, 61). We used only early passage cells (between passage 4 and 10) and only the same passage numbers of wildtype and Fmr1 KO cells. For each experiment, triplicate wells of cells were analyzed, and results were averaged as one data point (n=1). At least 3 independent biological replicates were used (n=3) for statistical analyses.\nProtein samples were separated on SDS-PAGE gels (Bio-Rad), transferred to PVDF membranes (Millipore), and incubated with primary antibodies. After incubation with fluorescence-labeled secondary antibodies (Li—CoR), the membranes were imaged using Li—CoR and quantification was performed using ImageJ software. At least n=3 independent blots were used for statistical analysis.\nFor loading controls, membranes were probed with the mouse antibody against GAPDH."}, "[2]": {"tested_on": "Fmr1 KO and wildtype NPCs", "assay": "Differentiation assay of cultured NPCs (Tuj1 neurons, GFAP astrocytes)", "assay_type": "cell-based, mouse", "conditions": "4 days", "method": "Proliferation and differentiation of aNPCs were analyzed using our published methods (Guo et al., Nature Med. (2011); Guo et al., Neuron 70, 924-938 (2011); Luo et al., PLoS Genet 6 (2010); Liu et al., Cell Stem Cell 6 (2010)). We used only early passage cells (between passage 4 and 10) and only the same passage numbers of wild type (WT) and Fmr1 KO cells. For each experiment, triplicate wells of cells were analyzed, and results were averaged as one data point (n=1). At least 3 independent experiments (n=3) were performed and used for statistical analyses for each analysis. […] For the differentiation assay, at 24 h post-plating, cells were changed into differentiation medium, Neurobasal A, containing 5 μM forskolin (Sigma-Aldrich, F-6886) and 1 μM retinoic acid (Sigma-Aldrich, R-2625) for 4 d, followed by fixation with 4% paraformaldehyde for 30 min, and then washed with Dulbecco's Phosphate Buffered Saline (DPBS), pH 7.4 for 30 min. Immunocytochemistry staining was carried out as described (Guo et al., Nature Med. (2011); Guo et al., Neuron 70, 924-938 (2011); Luo et al., PLoS Genet 6 (2010); Liu et al., Cell Stem Cell 6 (2010)). Briefly, cells were preblocked using DPBS containing 5% normal goat serum (VECTOR, S-1000) and 0.1% Triton X-100 for 30 min, followed by overnight incubation with primary antibodies: mouse anti-Tuj1 (1:1000, Promega, G712A) and rabbit anti-S100β (1:1000, Dako, Z0334).\nAfter washing with Dulbecco s Phosphate Buffered Saline (DPBS), cells were incubated with secondary antibodies that included goat anti-mouse 568 (1:1000, Invitrogen, A11031), goat anti-rabbit 488 (1:1000, Invitrogen, A11008) followed by counterstaining with the fluorescent nuclear dye 4′,6-diamidino-2′-phenylindole dihydrochloride (DAPI, Sigma-Aldrich, B2261). […] (VECTOR, H-1000), the numbers of Tuj1, GFAP-positive cells were quantified using an Olympus BX51 microscope equipped with a MicroFire digital camera (Optronics) and a motorized stage using a 20× objective lens. The quantification was carried out using an unbiased stereology method with assistance from StereoInvestigator software (MBF Biosciences). The percentage of differentiated cells was calculated as the number of Tuj1- or GFAP-labeled cells divided by the total number of cells stained with DAPI."}, "[3]": {"tested_on": "NSCs of Fmr1 KO and wildtype mice", "assay": "In vivo NSC activation in the adult dentate gyrus (GFP+GFAP+MCM2+)", "design": "species or system mouse", "conditions": "10 mg/kg every other day, 5 injections over 9 days", "protocol": "All animal procedures were performed according to protocols approved by the University of Wisconsin-Madison Care and Use Committee. All mice were on C57B/L6 genetic background. The Fmr1 KO/Nestin-GFP mice (Fmr1−/y::Nestin-GFP) were created by crossing female Fmr1 heterozygous KO mice (Fmr1+/−) (59) with homozygous Nestin-GFP transgenic males (60). Generation of FMRP inducible conditional mutant mice (Fmr1loxP/y::Nestin-CreERT2::Rosa26-tdt) and tamoxifen injections to induce recombination were performed as described (12). To induce recombination, mice (6-weeks old) received Tamoxifen (Sigma-Aldrich) daily for 5 d (160 mg/kg) as described (12). Nutlin-3 (10 mg/kg) was given to 7-8 week-old mice or 20-week old mice through IP injections every other day for 5 injections and sacrificed at either 24 hours, 4 weeks, 12, or 20 weeks after the last injection. […]\nThe total numbers of GFP^+ or tdT^+ cells in the dentate gyms of each animal were counted on a Zeiss Apotome microscope using unbiased stereology (StereoInvestigator software, MBF Biosciences, Inc). […] Dentate gyms volume was measured using StereoInvestigator as described (11, 12). […] Briefly, at least 50 GFP^+ or BrdU^+ cells in the dentate gyms were randomly selected, and their colocalization with cell-lineage markers was determined using a Nikon A1 confocal microscope and quantified using ImageJ software (NIH)."}, "Fmr1 KO mice [4]": {"tested_on": "Fmr1 KO mice", "assay": "Novel location test (NLT)", "assay_type": "in vivo, mouse", "conditions": "for spatial memory deficits in the novel location test, long-term effect: tested at 24 weeks old", "protocol": "(§1) All animal procedures were performed according to protocols approved by the University of Wisconsin-Madison Care and Use Committee. All mice were on C57B/L6 genetic background. The Fmr1 KO/Nestin-GFP mice (Fmr1−/y::Nestin-GFP) were created by crossing female Fmr1 heterozygous KO mice (Fmr1+/−) (59) with homozygous Nestin-GFP transgenic males (60). Generation of FMRP inducible conditional mutant mice (Fmr1loxP/y::Nestin-CreERT2::Rosa26-tdt) and tamoxifen injections to induce recombination were performed as described (12). To induce recombination, mice (6-weeks old) received Tamoxifen (Sigma-Aldrich) daily for 5 d (160 mg/kg) as described (12). Nutlin-3 (10 mg/kg) was given to 7-8 week-old mice or 20-week old mice through IP injections every other day for 5 injections and sacrificed at either 24 hours, 4 weeks, 12, or 20 weeks after the last injection. For NSC differentiation analysis, mice also received four BrdU injections (100 mg/kg) between day 2 and 3 of Nutlin-3 injections. To induce recombination in FMRP inducible conditional mutant mice (Fmr1^loxP/y::Nestin-CreER^T2::Rosa26-tdt) mice, mice 6-weeks old male mice received Tamoxifen (Sigma-Aldrich) daily for 5 days (160 mg kg-1 i.p., 30 mg ml^−1 in 10% ethanol mixed with sunflower oil, SigmaAldrich) based on a published procedure (13). BrdU (Sigma-Aldrich, B5002) was made in a concentration of 20 mg/mL in PBS. Nutlin-3 (Nt3, Cayman Chemical, 10004372) was made in a concentration of 100 mg/mL in dimethyl sulfoxide (DMSO).\nThis test measures spatial memory through an evaluation of the ability of mice to recognize the new location of a familiar object with respect to spatial cues. The experimental procedure was performed as previously described (65). The mice were exposed to 2 identical objects for 6 minutes during the acquisition phase 3 times and tested at 3 minutes later. Object preference was evaluated during this session. During the trial session, one of the objects was moved to a novel location, and the mice were allowed to explore the objects for 6 minutes, and the total time spent exploring each object was measured. Exploration was considered as any investigative behavior (i.e., head orientation, sniffing occurring within <1.0 cm) or deliberate contact occurring with each object. The discrimination index was calculated as the percentage of time spent investigating the object in the new location minus the percentage of time spent investigating the object in the old location: discrimination index=(Novel Location exploration time/total exploration time×100)−(old Location exploration time/total exploration time×100). All experiments were videotaped and scored by scientists who were blinded to experimental conditions."}, "Fmr1 KO mice [5]": {"tested_on": "Fmr1 KO mice", "assay": "Novel object recognition (NOR) test", "assay_type": "in vivo, mouse", "protocol": "as §1\nThis test is based on the natural propensity of rodents to preferentially explore novel objects over familiar ones. The experimental procedure was performed as previously described (38). On the first day, mice were habituated for 10 min to the maze in which the task was performed. On the second day, mice were put back in the maze for 10 min, and two identical objects were presented. 24 hours later, one of the familiar objects was replaced with a novel object, and the mice were again placed in the maze and were allowed to explore for 10 min, and the total time spent exploring each of the two objects (novel and familiar) was measured. The discrimination index was calculated as the difference between the percentages of time spent investigating the novel object and the time spent investigating the familiar objects: discrimination index=(novel object exploration time/total exploration time×100)−(familiar object exploration time/total exploration time×100). All experiments were videotaped and scored by scientists who were blinded to experimental conditions."}, "[6]": {"conditions": "Fmr1 KO NPCs, 1 μM MK2206, 2 μM Nutlin-3, 1 μM RG7112"}, "[7]": {"conditions": "wildtype NPCs, 1 μM MK2206, 2 μM Nutlin-3"}, "[8]": {"conditions": "Fmr1 KO mice treated at 20 weeks old (middle aged), 24-weeks-old at test"}, "[9]": {"conditions": "Fmr1 KO mice, treated as young adults, tested 4 weeks later"}, "[10]": {"conditions": "wildtype mice, tested 4 weeks after treatment"}}}
{"compound": "COc1ccc(C2=N[C@@H](c3ccc(Cl)cc3)[C@@H](c3ccc(Cl)cc3)N2C(=O)N2CCNC(=O)C2)c(OC(C)C)c1", "note": "[Nutlin-3]", "values": [{"measurement": "P53 expression", "setting": "[1]; Fmr1 KO NPCs", "result": "increased P53"}, {"measurement": "p-MDM2 (Ser166)", "setting": "[1]; Fmr1 KO NPCs", "result": "did not affect p-MDM2 levels"}, {"measurement": "P53 expression", "setting": "[1]; wildtype NPCs", "result": "no significant effect on wildtype cells"}, {"measurement": "p-MDM2 (Ser166)", "setting": "[1]; wildtype NPCs", "result": "did not affect p-MDM2 levels"}, {"measurement": "astroglial differentiation (GFAP+)", "setting": "[2]; [6]", "result": "specifically rescued astroglial differentiation phenotypes"}, {"measurement": "neuronal differentiation (Tuj1+)", "setting": "[2]; [6]", "result": "rescued neuronal differentiation phenotypes"}, {"measurement": "astroglial differentiation (GFAP+)", "setting": "[2]; [7]", "result": "without a significant effect on wildtype NPCs"}, {"measurement": "neuronal differentiation (Tuj1+)", "setting": "[2]; [7]", "result": "without a significant effect on wildtype NPCs"}, {"measurement": "NSC activation (percentage of activated NSCs among total NSCs)", "setting": "[3]; Fmr1 KO mice", "result": "specifically reduced NSC activation in Fmr1 KO mice to wildtype levels"}, {"measurement": "NSC activation (percentage of activated NSCs among total NSCs)", "setting": "[3]; wildtype mice", "result": "no significant effect on wildtype mice"}, {"measurement": "spatial memory deficits in the novel location test, long-term effect", "setting": "Fmr1 KO mice [4]; Fmr1 KO mice treated at 8 weeks old", "result": "long-term effects to fully rescue spatial memory deficits"}, {"measurement": "spatial memory deficits in the novel location test", "setting": "Fmr1 KO mice [4]; [8]", "result": "fully rescued spatial memory deficits"}, {"measurement": "performance on the novel location test (discrimination index)", "setting": "Fmr1 KO mice [4]; [9]", "result": "rescued performance"}, {"measurement": "spatial memory deficits in the novel location test, long-term effect", "setting": "Fmr1 KO mice [4]; Fmr1 conditional KO mice treated at 8 weeks old", "result": "long-term effects to fully rescue spatial memory deficits"}, {"measurement": "performance on the novel location test (discrimination index)", "setting": "Fmr1 KO mice [4]; [10]", "result": "no significant effect on wildtype mice"}, {"measurement": "cognitive deficits in the NOR test, long-term effect", "setting": "Fmr1 KO mice [5]; Fmr1 KO mice treated at 8 weeks old, tested at 24 weeks old", "result": "long-term effects to fully rescue cognitive deficits"}, {"measurement": "cognitive deficits in the NOR test", "setting": "Fmr1 KO mice [5]; [8]", "result": "fully rescued cognitive deficits"}, {"measurement": "performance on the novel object recognition test (discrimination index)", "setting": "Fmr1 KO mice [5]; [9]", "result": "rescued performance"}, {"measurement": "performance on the novel object recognition test (discrimination index)", "setting": "Fmr1 KO mice [5]; [10]", "result": "no significant effect on wildtype mice"}]}
